# According to patent publication US7009052B2, “Sulfonamide derivatives” (Warner Lambert Company LLC, priority 2003, dated 2006):
# Target: T1, androgen receptor (Homo sapiens, UniProt P10275)
# T1 sequence (P10275 1-920 Q868H): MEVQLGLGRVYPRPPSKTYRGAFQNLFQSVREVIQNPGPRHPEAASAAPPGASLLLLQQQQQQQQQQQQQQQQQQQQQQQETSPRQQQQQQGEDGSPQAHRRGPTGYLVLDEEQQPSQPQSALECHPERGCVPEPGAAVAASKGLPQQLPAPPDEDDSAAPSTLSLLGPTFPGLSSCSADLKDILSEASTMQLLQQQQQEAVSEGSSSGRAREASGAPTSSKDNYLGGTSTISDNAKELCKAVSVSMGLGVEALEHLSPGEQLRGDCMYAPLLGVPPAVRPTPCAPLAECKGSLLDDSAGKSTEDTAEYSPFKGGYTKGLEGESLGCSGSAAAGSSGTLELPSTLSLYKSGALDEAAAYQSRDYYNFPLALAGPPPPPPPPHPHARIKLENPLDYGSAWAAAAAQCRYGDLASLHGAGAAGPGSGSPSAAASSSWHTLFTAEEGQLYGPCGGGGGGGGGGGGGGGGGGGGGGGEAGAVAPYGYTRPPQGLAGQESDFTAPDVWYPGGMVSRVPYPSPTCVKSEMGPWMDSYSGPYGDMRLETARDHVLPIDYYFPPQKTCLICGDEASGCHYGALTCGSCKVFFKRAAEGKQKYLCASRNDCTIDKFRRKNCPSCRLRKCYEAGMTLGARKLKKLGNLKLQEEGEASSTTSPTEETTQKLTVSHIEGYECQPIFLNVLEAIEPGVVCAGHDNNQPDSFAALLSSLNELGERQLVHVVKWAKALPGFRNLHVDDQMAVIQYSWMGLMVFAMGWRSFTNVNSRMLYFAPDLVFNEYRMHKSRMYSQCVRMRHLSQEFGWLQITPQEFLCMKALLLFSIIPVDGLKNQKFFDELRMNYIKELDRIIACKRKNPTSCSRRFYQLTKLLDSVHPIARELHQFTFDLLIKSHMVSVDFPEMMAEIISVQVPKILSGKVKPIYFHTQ
# Test: AR Antagonist Cell Assay (MMTV-luciferase reporter, DHT-induced)
# Type: cell-based
# Settings: MDA-MB453-MMTV clone 54-19 cells, 100 pM DHT, 17 hr
# In short: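 Stably transfected MDA-MB453 cells carrying an ARE-containing MMTV promoter–firefly luciferase reporter, pretreated 30 min with compound at 10 uM or 1 uM in 1% charcoal-treated serum medium. Then stimulated with 100 pM DHT for 17 hr at 37° C. and luminescence read; expressed as % inhibition of DHT-induced signal.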
row,Compound,IC50
1,"N#Cc1cccc(NS(=O)(=O)c2ccc3[nH]c(=O)cc(C(F)(F)F)c3c2)c1 [Example 87, 2-Oxo-4-trifluoromethyl-1,2-dihydroquinoline-6-sulfonic acid(3-cyanophenyl)amide]",3.55 µM
2,"Cc1cccc(Cl)c1CNS(=O)(=O)c1ccc2[nH]c(=O)cc(C(F)(F)F)c2c1 [Example 144, 2-Oxo-4-trifluoromethyl-1,2-dihydroquinoline-6-sulfonic acid2-chloro-6-methylbenzylamide]",5.53 µM
3,"CSc1ccccc1CNS(=O)(=O)c1ccc2[nH]c(=O)cc(C(F)(F)F)c2c1 [Example 143, 2-Oxo-4-trifluoromethyl-1,2-dihydroquinoline-6-sulfonic acid2-methylsulfanylbenzylamide]",0.84 µM
4,"Cn1c(=O)cc(C(F)(F)F)c2cc(S(=O)(=O)NC3CCc4ccccc43)ccc21 (stereo not shown) [Example 55, 1-Methyl-2-oxo-4-trifluoromethyl-1,2-dihydroquinoline-6-sulfonicacid indan-1-ylamide]",4.31 µM
5,"CCCN(CC1CC1)S(=O)(=O)c1ccc2[nH]c(=O)cc(C(F)(F)F)c2c1 [Example 73, 2-Oxo-4-trifluoromethyl-1,2-dihydroquinoline-6-sulfonic acidcyclopropylmethyl-propylamide]",0.55 µM
6,"CSc1ccccc1CNS(=O)(=O)c1ccc2oc(=O)cc(C(F)(F)F)c2c1 [Example 66, 2-Oxo-4-trifluoromethyl-2H-chromene-6-sulfonic acid 2-methylsulfanylbenzylamide]",> 10 µM

# The remaining compounds from weak to strong by IC50, led by results:
row,IC50,Compound
1,5.68 µM,"Cn1c(=O)cc(C(F)(F)F)c2cc(S(=O)(=O)NCCc3cccs3)ccc21 [Example 54, 1-Methyl-2-oxo-4-trifluoromethyl-1,2-dihydroquinoline-6-sulfonicacid (2-thiophen-2-ylethyl)amide]"
2,4.61 µM,"Cc1ccccc1CNS(=O)(=O)c1ccc2[nH]c(=O)cc(C(F)(F)F)c2c1 [Example 124, 2-Oxo-4-trifluoromethyl-1,2-dihydroquinoline-6-sulfonic acid2-methylbenzylamide]"
3,0.36 µM,"CSc1cccc(NS(=O)(=O)c2ccc3[nH]c(=O)cc(C(F)(F)F)c3c2)c1 [Example 101, 2-Oxo-4-trifluoromethyl-1,2-dihydroquinoline-6-sulfonic acid(3-methylsulfanylphenyl)amide]"
4,0.2 µM,"COc1cc(NS(=O)(=O)c2ccc3[nH]c(=O)cc(C(F)(F)F)c3c2)cc(OC)c1 [Example 103, 2-Oxo-4-trifluoromethyl-1,2-dihydroquinoline-6-sulfonic acid(3,5-dimethoxyphenyl)amide]"
